Experimental data: patent US7915292B2, “Antibacterial quinoline derivatives” (Janssen Pharmaceutica NV, priority 2005, dated 2011)
Values after ≈ are worked out from the molar mass of the structure shown. Counter-ions that a name gives are not always drawn.

Legend:
[1] = system: M. Smegmatis ATCC607; assay: In-vitro anti-bacterial activity against strain M. smegmatis ATCC607 (Alamar Blue growth inhibition); format: cell-based; details: 48 hours incubation; for IC50: Mycolicibacterium smegmatis, read-out: M. smegmatis pIC50 (converted)
Procedure: Serial five-fold dilutions (45 μl in 180 μl) were made directly in the microtiter plates from column 2 to 11 using a customised robot system (Zymark Corp., Hopkinton, Mass.). Pipette tips were changed after every 3 dilutions to minimize pipetting errors with high hydrophobic compounds. Untreated control samples with (column 1) and without (column 12) inoculum were included in each microtiter plate. Approximately 250 CFU per well of bacteria inoculum, in a volume of 100 μl in 2.8× Mueller-Hinton broth medium, was added to the rows […]. The same volume of broth medium without inoculum was added to column 12 in row A to H. The cultures were incubated at 37° C. for 48 hours in a humidified 5% CO2 atmosphere (incubator with open air valve and continuous ventilation). At the end of incubation, two days after inoculation, the bacterial growth was quantitated fluorometrically. Therefore Alamar Blue (10×) was added to all wells in a volume of 20 μl and plates were incubated for another 2 hours at […] The fluorescence was read in a computer-controlled fluorometer (Cytofluor, Biosearch) at an excitation wavelength of 530 nm and an emission wavelength of 590 nm (gain 30). The percentage growth inhibition achieved by the compounds was calculated according to standard methods and expressed as pIC50 values.

[2] = system: ECO 25922; assay: Microtitre plate assay, IC90 determination, ECO 25922; format: cell-based, E. coli; details: 90% inhibitory concentration for bacterial growth, strain ECO 25922, 24 hours at 37° C.; for IC90: Escherichia coli, read-out: IC90 (μg/ml) ECO 25922
Procedure: Stocks (0.5 ml/tube) were stored at -70° C. until use. Bacteria titrations were performed in microtiter plates to detect the TCID50, in which the TCID50 represents the dilution that gives rise to bacterial growth in 50% of inoculated cultures. In general, an inoculum level of approximately 100 TCID50 was used for susceptibility testing. […] Serial five-fold dilutions (45 μl in 180 μl) were made directly in the microtiter plates from column 2 to reach column 11. Untreated control samples with (column 1) and without (column 12) inoculum were included in each microtiter plate. Depending on the bacteria type, approximately 10 to 60 CFU per well of bacteria inoculum (100 TCID50), in a volume of 100 μl in 2.8× Mueller-Hinton broth medium, was added to the rows […]. The same volume of broth medium without inoculum was added to column 12 in row A to H. The cultures were incubated at 37° C. for 24 hours under a normal atmosphere (incubator with open air valve and continuous ventilation). At the end of incubation, one day after inoculation, the bacterial growth was quantitated fluorometrically. Therefore resazurin (0.6 mg/ml) was added in a volume of 20 μl to all wells 3 hours after inoculation, and the plates were re-incubated overnight. A change in colour from blue to pink indicated the growth of bacteria. The fluorescence was read in a computer-controlled fluorometer (Cytofluor Biosearch) at an excitation wavelength of 530 nm and an emission wavelength of 590 nm. The % growth inhibition achieved by the compounds was calculated according to standard methods. The IC90 (expressed in μg/ml) was defined as the 90% inhibitory concentration for bacterial growth.

[3] = system: Mycobacterium tuberculosis (strain H37RV); assay: In-vitro method for testing compounds against M. tuberculosis (resazurin growth inhibition); format: cell-based; details: 7 days incubation; for IC50: Mycobacterium tuberculosis, 168 h, read-out: M. tuberculosis pIC50 (converted)

| Compound | M. smegmatis pIC50 [1] | M. tuberculosis pIC50 [3] | IC50 [1] [µM] | other results |
| --- | --- | --- | --- | --- |
| O=C(CN(Cc1ccccc1)C(c1ccccc1)c1cc2ccccc2nc1-c1ccccc1)N1CCCC1 (stereo not drawn) [Compound 55] | 6.0 | 4.3 | – | IC90 (μg/ml) ECO 25922 [2]: 12.9 µg/mL (≈ 25.2 µM) |
| CCCN(CCC)C(=O)CN(Cc1ccccc1)C(c1ccccc1)c1cc2cc(C)ccc2nc1-c1ccccc1 (stereo not drawn) [Compound 49] | 5.2 | 4.6 | – | – |
| Cc1ccc2nc(-c3ccccc3)c(C(c3ccccc3)N(CC(=O)N3CCOCC3)Cc3ccccc3)cc2c1 (stereo not drawn) [Compound 68] | 6.5 | 5.1 | – | – |
| CCOC(=O)CN(C(C)C)C(c1ccccc1)c1cc2cc(Br)ccc2nc1OC (stereo not drawn) [Compound 133] | 5.7 | 4.4 | – | – |
| COc1nc2ccc(Br)cc2cc1C(c1ccccc1)N(CCC(=O)N1CCOCC1)Cc1ccccc1 (stereo not drawn) [Compound 120] | 5.6 | – | – | IC90 (μg/ml) ECO 25922 [2]: 14.4 µg/mL (≈ 25.1 µM) |
| Cc1ccc2nc(-c3ccccc3)c(C(c3ccccc3)N(CC(=O)N3CCSC3)Cc3ccccc3)cc2c1 (stereo not drawn) [Compound 65] | 6.5 | 5.0 | – | IC90 (μg/ml) ECO 25922 [2]: 13.7 µg/mL (≈ 25.2 µM) |
| Cc1ccc2nc(-c3ccccc3)c(C(c3ccccc3)N(C)CCN(C)C)cc2c1 (stereo not drawn) (as salt: oxalate) [Compound 37] | – | – | – | melting point: 142 °C |
| Cc1ccc2nc(-c3ccccc3)c(C(c3ccccc3)N(CC(=O)N(C)C)Cc3ccccc3)cc2c1 (stereo not drawn) [Compound 45] | – | – | 1 | IC50 [3]: 10 µM |
| COc1nc2ccc(Br)cc2cc1C(c1ccccc1)N(CC(=O)N1CCOCC1)Cc1ccccc1Cl (stereo not drawn) [Compound 108] | 5.9 | – | – | IC90 (μg/ml) ECO 25922 [2]: 14.9 µg/mL (≈ 25 µM) |
| COc1nc2ccc(Br)cc2cc1C(c1ccccc1)N(CC(=O)N1CCSCC1)Cc1ccccc1 (stereo not drawn) [Compound 106] | 6.4 | <4 | – | IC90 (μg/ml) ECO 25922 [2]: 14.5 µg/mL (≈ 25.1 µM) |
| Cc1ccc2nc(-c3ccccc3)c(C(c3ccccc3)N(CC(=O)N(C)C(C)C)Cc3ccccc3)cc2c1 (stereo not drawn) [Compound 41] | – | – | 0.1 | melting point: 126 °C; IC90 [2]: 13.3 µg/mL (≈ 25.2 µM); IC50 [3]: 6.31 µM |
| COc1nc2ccc(Br)cc2cc1C(c1ccccc1)N(CCN(C)C)c1ccccc1 (stereo not drawn) [Compound 18] | – | – | 2 | melting point: 120 °C |
| CNC(=O)CN(C)C(c1ccccc1)c1cc2cc(Br)ccc2nc1OC (stereo not drawn) [Compound 3] | – | – | 89.1 | melting point: 190 °C; IC50 [3]: > 100 µM |
| CCOC(=O)CN(Cc1cccc2ncccc12)C(c1ccccc1)c1cc2cc(Br)ccc2nc1OC (stereo not drawn) [Compound 145] | – | – | 31.6 | melting point: 96 °C |
| COc1nc2ccc(Br)cc2cc1C(c1ccccc1)N(CC(=O)N1CCOCC1)Cc1ccoc1 (stereo not drawn) [Compound 102] | 5.8 | – | – | IC90 (μg/ml) ECO 25922 [2]: 13.8 µg/mL (≈ 25.1 µM) |
| COc1nc2ccc(C#N)cc2cc1C(c1ccccc1)N(CC(=O)N1CCCC1)Cc1ccccc1 (stereo not drawn) [Compound 122] | – | – | 63.1 | melting point: 161 °C; IC90 [2]: 12.3 µg/mL (≈ 25.1 µM) |
| CCOC(=O)CN(C)C(c1ccccc1)c1cc2cc(Br)ccc2nc1OC (stereo not drawn) [Compound 131] | – | – | 1 | IC50 [3]: 31.6 µM |
| CNC(=O)CN(Cc1ccccc1)C(c1ccccc1)c1cc2cc(Br)ccc2nc1-c1ccccc1 (stereo not drawn) [Compound 52] | 5.8 | – | – | IC90 (μg/ml) ECO 25922 [2]: 13.8 µg/mL (≈ 25.1 µM) |
| COc1nc2ccc(C)cc2cc1C(c1ccccc1)N(CC(=O)N1CCOCC1)Cc1ccccc1 (stereo not drawn) [Compound 59] | – | – | 1.58 | melting point: 126 °C; IC90 [2]: 12.4 µg/mL (≈ 25 µM) |
| CCOC(=O)CN(Cc1ccccc1)C(c1ccccc1)c1cc2cc(Br)ccc2nc1-c1ccccc1 (stereo not drawn) [Compound 146] | – | – | 0.501 | IC90 [2]: 14.2 µg/mL (≈ 25.1 µM); IC50 [3]: 50.1 µM |
| COc1nc2ccc(Br)cc2c(Cl)c1C(c1ccccc1)N(C)CC(=O)N1CCSCC1 (stereo not drawn) [Compound 97] | 4.4 | 4.2 | – | – |

| Compound | M. smegmatis pIC50 [1] | M. tuberculosis pIC50 [3] | IC50 [1] [µM] | other results |
| --- | --- | --- | --- | --- |
| COc1nc2ccc(C#N)cc2cc1C(c1ccccc1)N(CC(=O)N1CCOCC1)Cc1ccccc1 (stereo not drawn) [Compound 124] | 5.05 | – | – | IC90 (μg/ml) ECO 25922 [2]: 12.7 µg/mL (≈ 25.1 µM) |
| Cc1ccc2nc(-c3ccccc3)c(C(c3ccccc3)N(CC(=O)N3CC(C)OC(C)C3)Cc3ccccc3)cc2c1 (stereo not drawn) [Compound 71] | 5.7 | 5.1 | – | – |
| CCOC(=O)CN(Cc1ccccc1)C(c1ccccc1)c1cc2cc(C#N)ccc2nc1OC (stereo not drawn) [Compound 151] | – | – | – | melting point: 148 °C |
| Cc1ccc2nc(-c3ccccc3)c(C(c3ccccc3)N(CC(=O)N3CCC(Cc4ccccc4)CC3)Cc3ccccc3)cc2c1 (stereo not drawn) [Compound 79] | – | 5.7 | – | – |
| Cc1ccc2nc(-c3ccccc3)c(C(c3ccccc3)N(CC(=O)N3CCN(c4ncccn4)CC3)Cc3ccccc3)cc2c1 (stereo not drawn) [Compound 76] | – | 5.0 | – | – |
| CCN(Cc1ccccc1)C(=O)CN(Cc1ccccc1)C(c1ccccc1)c1cc2cc(C)ccc2nc1-c1ccccc1 (stereo not drawn) [Compound 48] | – | 4.1 | – | – |
| COc1cccc(CN(CCN(C)C)C(c2ccccc2)c2cc3cc(Br)ccc3nc2OC)c1 (stereo not drawn) (as salt: oxalate) [Compound 20] | – | – | – | melting point: 142 °C |
| Cc1ccc2nc(-c3ccccc3)c(C(c3ccccc3)N(CC(=O)N3CCN(Cc4ccccc4)CC3)Cc3ccccc3)cc2c1 (stereo not drawn) [Compound 78] | – | 6.05 | – | – |
| CCOC(=O)CN(Cc1ccccc1)C(c1ccccc1)c1cc2cc(-c3cccnc3)ccc2nc1-c1ccccc1 (stereo not drawn) [Compound 152] | – | – | 2.51 | IC90 [2]: 14.2 µg/mL (≈ 25.2 µM) |
| Cc1ccc2nc(-c3ccccc3)c(C(c3ccccc3)N(CC(=O)N3CCc4ccccc4C3)Cc3ccccc3)cc2c1 (stereo not drawn) [Compound 74] | 5.2 | 5.0 | – | IC90 (μg/ml) ECO 25922 [2]: 14.8 µg/mL (≈ 25.2 µM) |
| Cc1ccc2nc(-c3ccccc3)c(C(c3ccccc3)N(CC(=O)N3CCCCC3)Cc3ccccc3)cc2c1 (stereo not drawn) [Compound 66] | – | – | 2.51 | melting point: 78 °C; IC90 [2]: 13.6 µg/mL (≈ 25.2 µM); IC50 [3]: 39.8 µM |
| Cc1ccc2nc(-c3ccccc3)c(C(c3ccccc3)N(CC(=O)N3CCC(C)CC3)Cc3ccccc3)cc2c1 (stereo not drawn) [Compound 67] | 6.0 | 5.7 | – | – |
| COc1nc2ccc(Br)cc2cc1C(c1ccccc1)N(CC(=O)N1CCOCC1)Cc1cccnc1 (stereo not drawn) [Compound 111] | 5.8 | – | – | IC90 (μg/ml) ECO 25922 [2]: 14.1 µg/mL (≈ 25.1 µM) |
| CCOC(=O)CN(Cc1ccccc1)C(c1ccccc1)c1cc2cc(C)ccc2nc1-c1ccccc1 (stereo not drawn) [Compound 150] | – | – | 0.398 | IC50 [3]: 39.8 µM |
| Cc1ccc2nc(-c3ccccc3)c(C(c3ccccc3)N(CC(=O)N3CCCC3)Cc3ccccc3)cc2c1 (stereo not drawn) [Compound 64] | 6.5 | 5.0 | – | – |
| COc1nc2ccc(Br)cc2cc1C(c1ccccc1)N(CC(=O)N1CCCC1)Cc1ccccc1 (stereo not drawn) [Compound 103] | 4.5 | – | – | IC90 (μg/ml) ECO 25922 [2]: 13.7 µg/mL (≈ 25.2 µM) |
| CCN(CC)C(=O)CN(Cc1ccccc1)C(c1ccccc1)c1cc2cc(C)ccc2nc1-c1ccccc1 (stereo not drawn) [Compound 47] | – | – | 0.316 | IC50 [3]: 6.31 µM |
| Cc1ccc2nc(-c3ccccc3)c(C(c3ccccc3)N(CC(=O)N(C)CC#N)Cc3ccccc3)cc2c1 (stereo not drawn) [Compound 46] | 5.8 | 5.0 | – | – |
| COc1nc2ccc(Br)cc2cc1C(c1ccccc1)N(C)CC(=O)N1CCSCC1 (stereo not drawn) [Compound 88] | 4.9 | 4.05 | – | – |
| COc1nc2ccc(Br)cc2cc1C(c1ccccc1)N(CC(=O)N1CCOCC1)Cc1ccccc1 (stereo not drawn) [Compound 105] | 6.0 | – | – | IC90 (μg/ml) ECO 25922 [2]: 14.1 µg/mL (≈ 25.2 µM) |
